Results from US20260167656A1, “PHOSPHORAMIDATE COMPOUNDS AND USES THEREOF” (ALLORION THERAPEUTICS INC, priority 2022, published 2026).

Key:
[1] = test system: non-small cell lung cancer cell line H460; experiment: H460 proliferation assay in the presence of 3 uM ASP9521 (AKR1C3 specific inhibitor); assay type: cell-based, human; conditions: H460 cells, CellTiter-Glo, 72 hours, in the presence of 3 uM ASP9521 added 4 hours prior to compounds; read-out: CTG H460: Avg IC50 (nM) [Assay Condition: ASP9521]
Summary of the method: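 AKR1C3 blocked with 3 uM ASP9521 given 4 h ahead of test compounds. H460 cells, plated 24 h earlier, were then treated for 72 h at 37 °C in 5% CO2. CellTiter-Glo luminescence gave viability.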

[2] = test system: non-small cell lung cancer cell line H460; experiment: In vitro human cancer cell line cytotoxicity (proliferation) assay in H460, CellTiter-Glo, 72 hours; assay type: cell-based; conditions: DMSO condition (no AKR1C3 inhibitor), read-out: CTG H460: Avg IC50 (nM) [Assay Condition: DMSO]
Summary of the method: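 IC50s in nM come from CellTiter-Glo viability read after 72 h of compound exposure. Compounds went in from 10 mM DMSO stocks onto H460 cells, which had been plated at 3×10^3 per well and grown 24 h beforehand at 37 °C, 5% CO2.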

[3] = Homo sapiens, NCI-H460, 72 h, H460 cells

Row | Compound | IC50 [1] [nM] | IC50 [2, 3] [nM] | IC50 ([2]; H460 cells) [nM] | IC50 ([2]; Homo sapiens, NCI-H460, H460 cells) [nM]
1 | O=[N+]([O-])c1ccc2c(c1Oc1ccc(C(F)(F)F)nc1)CCC2OP(=O)(N1CC1)N1CC1 (stereo not drawn) [Example 25] | 92.9 | < 10 |  | 
2 | O=[N+]([O-])c1ccc2c(c1Oc1ccc(C(F)(F)F)nc1)CCC2OP(=O)(N1CC1)N1CC1 (stereo not drawn) [Example 26] | 298 |  | < 10 | 
3 | O=[N+]([O-])c1ccc2c(c1Oc1ccc(-c3ccc(F)cn3)c(F)c1)CCC2OP(=O)(N1CC1)N1CC1 (stereo not drawn) [Example 29] | 1220 | < 10 |  | 
4 | O=C(c1ccc(Oc2c([N+](=O)[O-])ccc3c2CCC3OP(=O)(N2CC2)N2CC2)cc1)N1CCOCC1 (stereo not drawn) [Example 34] | 822 | 10 to 50 |  | 
5 | O=C(c1ccc(Oc2c([N+](=O)[O-])ccc3c2CCC3OP(=O)(N2CC2)N2CC2)cc1)N1CCOCC1 (stereo not drawn) [Example 35] | 472 |  | < 10 | 
6 | CNC(=O)c1ccc(Oc2c([N+](=O)[O-])ccc3c2CCC3OP(=O)(N2CC2)N2CC2)cc1 (stereo not drawn) [Example 36] | 527 | 10 to 50 |  | 
7 | CNC(=O)c1ccc(Oc2c([N+](=O)[O-])ccc3c2CCC3OP(=O)(N2CC2)N2CC2)cc1 (stereo not drawn) [Example 37] | 178 |  | < 10 | 
8 | O=[N+]([O-])c1ccc2c(c1Oc1ccc(-c3ccc(Cl)cc3)cc1)CCC2OP(=O)(N1CC1)N1CC1 (stereo not drawn) [Example 44] | 1940 |  | ≥ 100 | 
9 | O=[N+]([O-])c1ccc2c(c1Oc1ccc(-c3ccc(Cl)cc3)cc1)CCC2OP(=O)(N1CC1)N1CC1 (stereo not drawn) [Example 45] | 5550 |  | 10 to 50 | 
10 | Cn1cccc(-c2ccc(Oc3c([N+](=O)[O-])ccc4c3CCC4OP(=O)(N3CC3)N3CC3)cc2)c1=O (stereo not drawn) [Example 48] | 1010 |  | ≥ 100 | 
11 | Cn1cccc(-c2ccc(Oc3c([N+](=O)[O-])ccc4c3CCC4OP(=O)(N3CC3)N3CC3)cc2)c1=O (stereo not drawn) [Example 49] | 920 |  | < 10 | 
12 | O=[N+]([O-])c1ccc2c(c1Oc1ccc(-c3ccccc3)nc1)CCC2OP(=O)(N1CC1)N1CC1 (stereo not drawn) [Example 50] | 335 | < 10 |  | 
13 | O=[N+]([O-])c1ccc2c(c1Oc1ccc(-c3ccccc3)nc1)CCC2OP(=O)(N1CC1)N1CC1 (stereo not drawn) [Example 51] | 327 |  | < 10 | 
14 | O=C(NC1CCC1)c1ccc(Oc2c([N+](=O)[O-])ccc3c2CCC3OP(=O)(N2CC2)N2CC2)cc1 (stereo not drawn) [Example 52] | 700 | 10 to 50 |  | 
15 | O=C(NC1CCC1)c1ccc(Oc2c([N+](=O)[O-])ccc3c2CCC3OP(=O)(N2CC2)N2CC2)cc1 (stereo not drawn) [Example 53] | 945 |  | < 10 | 
16 | O=C1c2ccc(Oc3c([N+](=O)[O-])ccc4c3CCC4OP(=O)(N3CC3)N3CC3)cc2CN1C1CC1 (stereo not drawn) [Example 56] | 447 | < 10 |  | 
17 | O=C1c2ccc(Oc3c([N+](=O)[O-])ccc4c3CCC4OP(=O)(N3CC3)N3CC3)cc2CN1C1CC1 (stereo not drawn) [Example 57] | 219 |  | < 10 | 
18 | Cn1cc(-c2ccc(Oc3c([N+](=O)[O-])ccc4c3CCC4OP(=O)(N3CC3)N3CC3)cc2)ccc1=O (stereo not drawn) [Example 60] | 1010 |  | ≥ 100 | 
19 | Cn1cc(-c2ccc(Oc3c([N+](=O)[O-])ccc4c3CCC4OP(=O)(N3CC3)N3CC3)cc2)ccc1=O (stereo not drawn) [Example 61] | 1010 |  | 10 to 50 | 
20 | O=[N+]([O-])c1ccc2c(c1Oc1ccc(-c3ccncc3)cc1)CCC2OP(=O)(N1CC1)N1CC1 (stereo not drawn) [Example 62] | 6100 |  | ≥ 100 | 
21 | O=[N+]([O-])c1ccc2c(c1Oc1ccc(-c3ccncc3)cc1)CCC2OP(=O)(N1CC1)N1CC1 (stereo not drawn) [Example 63] | 7430 |  | 10 to 50 | 
22 | O=C(c1cccc(Oc2c([N+](=O)[O-])ccc3c2CCC3OP(=O)(N2CC2)N2CC2)c1)N1CC(F)(F)C1 (stereo not drawn) [Example 66] | 736 | < 10 |  | 
23 | O=C(c1cccc(Oc2c([N+](=O)[O-])ccc3c2CCC3OP(=O)(N2CC2)N2CC2)c1)N1CC(F)(F)C1 (stereo not drawn) [Example 67] | 541 |  | < 10 | 
24 | O=C1OCCN1c1cccc(Oc2c([N+](=O)[O-])ccc3c2CCC3OP(=O)(N2CC2)N2CC2)c1 (stereo not drawn) [Example 70] | 380 |  |  | < 10
25 | O=C1OCCN1c1cccc(Oc2c([N+](=O)[O-])ccc3c2CCC3OP(=O)(N2CC2)N2CC2)c1 (stereo not drawn) [Example 71] | 31.9 |  | < 10 | 
26 | O=C(NC1CC1)c1ccc(Oc2c([N+](=O)[O-])ccc3c2CCC3OP(=O)(N2CC2)N2CC2)cc1 (stereo not drawn) [Example 72] | 1390 |  | 50 to 100 | 
27 | O=C(NC1CC1)c1ccc(Oc2c([N+](=O)[O-])ccc3c2CCC3OP(=O)(N2CC2)N2CC2)cc1 (stereo not drawn) [Example 73] | 943 |  | < 10 | 

Row | Compound | IC50 [1] [nM] | IC50 [2, 3] [nM] | IC50 ([2]; H460 cells) [nM] | IC50 ([2]; Homo sapiens, NCI-H460, H460 cells) [nM]
28 | Cn1c(-c2cccc(Oc3c([N+](=O)[O-])ccc4c3CCC4OP(=O)(N3CC3)N3CC3)c2)cccc1=O (stereo not drawn) [Example 74] | 1270 |  | ≥ 100 | 
29 | Cn1c(-c2cccc(Oc3c([N+](=O)[O-])ccc4c3CCC4OP(=O)(N3CC3)N3CC3)c2)cccc1=O (stereo not drawn) [Example 75] | 2720 |  | 10 to 50 | 
30 | O=[N+]([O-])c1ccc2c(c1Oc1ccc(-c3cnn(C4CC4)c3)cc1)CCC2OP(=O)(N1CC1)N1CC1 (stereo not drawn) [Example 78] | 1150 |  | ≥ 100 | 
31 | O=[N+]([O-])c1ccc2c(c1Oc1ccc(-c3cnn(C4CC4)c3)cc1)CCC2OP(=O)(N1CC1)N1CC1 (stereo not drawn) [Example 79] | 1610 |  | 10 to 50 | 
32 | O=c1ccccn1-c1cccc(Oc2c([N+](=O)[O-])ccc3c2CCC3OP(=O)(N2CC2)N2CC2)c1 (stereo not drawn) [Example 80] | 909 | < 10 |  | 
33 | O=c1ccccn1-c1cccc(Oc2c([N+](=O)[O-])ccc3c2CCC3OP(=O)(N2CC2)N2CC2)c1 (stereo not drawn) [Example 81] | 829 |  | < 10 | 
34 | O=[N+]([O-])c1ccc2c(c1Oc1cccc(-n3cc(F)cn3)c1)CCC2OP(=O)(N1CC1)N1CC1 (stereo not drawn) [Example 82] | 181 | < 10 |  | 
35 | O=[N+]([O-])c1ccc2c(c1Oc1cccc(-n3cc(F)cn3)c1)CCC2OP(=O)(N1CC1)N1CC1 (stereo not drawn) [Example 83] | 1170 |  | < 10 | 
36 | O=[N+]([O-])c1ccc2c(c1Oc1cccc(-c3ncccn3)c1)CCC2OP(=O)(N1CC1)N1CC1 (stereo not drawn) [Example 84] | 1020 | 10 to 50 |  | 
37 | O=[N+]([O-])c1ccc2c(c1Oc1cccc(-c3ncccn3)c1)CCC2OP(=O)(N1CC1)N1CC1 (stereo not drawn) [Example 85] | 5280 |  | < 10 | 
38 | O=[N+]([O-])c1ccc2c(c1Oc1cccc(-c3ncc(F)cn3)c1)CCC2OP(=O)(N1CC1)N1CC1 (stereo not drawn) [Example 86] | 1230 | 10 to 50 |  | 
39 | O=[N+]([O-])c1ccc2c(c1Oc1cccc(-c3ncc(F)cn3)c1)CCC2OP(=O)(N1CC1)N1CC1 (stereo not drawn) [Example 87] | 5890 |  | 10 to 50 | 
40 | Cc1nc(-c2cccc(Oc3c([N+](=O)[O-])ccc4c3CCC4OP(=O)(N3CC3)N3CC3)c2)no1 (stereo not drawn) [Example 88] | 3570 |  | 50 to 100 | 
41 | Cc1nc(-c2cccc(Oc3c([N+](=O)[O-])ccc4c3CCC4OP(=O)(N3CC3)N3CC3)c2)no1 (stereo not drawn) [Example 89] | 6150 |  | 10 to 50 | 
42 | O=[N+]([O-])c1ccc2c(c1Oc1cccc(-c3noc(C4CC4)n3)c1)CCC2OP(=O)(N1CC1)N1CC1 (stereo not drawn) [Example 90] | 9470 | ≥ 100 |  | 
43 | O=[N+]([O-])c1ccc2c(c1Oc1cccc(-c3noc(C4CC4)n3)c1)CCC2OP(=O)(N1CC1)N1CC1 (stereo not drawn) [Example 91] | > 10000 |  | ≥ 100 | 
44 | O=[N+]([O-])c1ccc2c(c1Oc1ccc(-c3ccc(F)cn3)c(F)c1)CCC2OP(=O)(N1CC1)N1CC1 (stereo not drawn) [Example 92] | 1420 |  | < 10 | 
45 | Cn1c(=O)n(C)c2cc(Oc3c([N+](=O)[O-])ccc4c3CCC4OP(=O)(N3CC3)N3CC3)ccc21 (stereo not drawn) [Example 93] | 878 |  | ≥ 100 | 
46 | Cn1c(=O)n(C)c2cc(Oc3c([N+](=O)[O-])ccc4c3CCC4OP(=O)(N3CC3)N3CC3)ccc21 (stereo not drawn) [Example 94] | 1450 |  | 10 to 50 | 
47 | O=[N+]([O-])c1ccc2c(c1Oc1cccc(-c3cnn(C4CC4)c3)c1)CCC2OP(=O)(N1CC1)N1CC1 (stereo not drawn) [Example 95] | 1310 |  | 50 to 100 | 
48 | O=[N+]([O-])c1ccc2c(c1Oc1cccc(-c3cnn(C4CC4)c3)c1)CCC2OP(=O)(N1CC1)N1CC1 (stereo not drawn) [Example 96] | 5270 |  | 10 to 50 | 
49 | O=C(c1cccc(Oc2c([N+](=O)[O-])ccc3c2CCC3OP(=O)(N2CC2)N2CC2)c1)N1CCC1 (stereo not drawn) [Example 97] | 497 | < 10 |  | 
50 | O=C(c1cccc(Oc2c([N+](=O)[O-])ccc3c2CCC3OP(=O)(N2CC2)N2CC2)c1)N1CCC1 (stereo not drawn) [Example 98] | 205 |  | < 10 | 
51 | O=C(c1cccc(Oc2c([N+](=O)[O-])ccc3c2CCC3OP(=O)(N2CC2)N2CC2)c1)N1CCCC1 (stereo not drawn) [Example 99] | 1010 | < 10 |  | 
52 | O=C(c1cccc(Oc2c([N+](=O)[O-])ccc3c2CCC3OP(=O)(N2CC2)N2CC2)c1)N1CCCC1 (stereo not drawn) [Example 100] | 618 |  | < 10 | 
53 | O=C(c1cccc(Oc2c([N+](=O)[O-])ccc3c2CCC3OP(=O)(N2CC2)N2CC2)c1)N1CCC(F)(F)C1 (stereo not drawn) [Example 101] | 1210 | < 10 |  | 
54 | O=C(c1cccc(Oc2c([N+](=O)[O-])ccc3c2CCC3OP(=O)(N2CC2)N2CC2)c1)N1CCC(F)(F)C1 (stereo not drawn) [Example 102] | 919 |  | < 10 | 
